Patent US11479525B2, “Propenylamines and methods of making and using same” (3M INNOVATIVE PROPERTIES COMPANY, priority 2016, dated 2022)

Experiment: Atmospheric lifetime from the rate of reaction with hydroxyl radicals, relative to reference compounds (FTIR gas cell)
Type: physicochemical
Conditions: gas phase reaction with hydroxyl radical relative to chloromethane/ethane; for Atmospheric Lifetime, E-isomer: E-isomer of the 1-propenylamine; for Atmospheric Lifetime, Z-isomer: Z-isomer of the 1-propenylamine
Description: The atmospheric lifetimes of 1-propenylamines were determined from their rate of reaction with hydroxyl radicals. The pseudo-first order rates for the reaction of the gaseous 1-propenylamines with hydroxyl radical were measured in a series of experiments relative to reference compounds such as chloromethane and ethane. The measurements were performed in a 5.7 L, heated FTIR gas cell equipped with a polished semiconductor-grade quartz window. An Oriel Instruments UV Lamp, Model 66921 equipped with a 480 W mercury-xenon bulb was used to generate hydroxyl radicals by photolyzing ozone in the presence of water vapor. The concentrations of the 1-propenylamine and the reference compound were measured as a function of reaction time using an I-Series FTIR from Midac Corporation. The atmospheric lifetimes were calculated from the reaction rates for the 1-propenylamines relative to the reference compounds and the reported lifetime of the reference compounds as shown below:
[formula] where τx is the atmospheric lifetime of the 1-propenylamine, τr is the atmospheric lifetime of the reference compound, and kx and kr are the rate constants for the reaction of hydroxyl radical with the isomeric 1-propenylamines and the reference compound, respectively.

| SMILES | Atmospheric Lifetime, E-isomer | Atmospheric Lifetime, Z-isomer |
| --- | --- | --- |
| FC(=C(F)C(F)(F)F)N(C(F)(F)F)C(F)(F)F [(CF3)2N—CF═CFCF3, 1,2,3,3,3-pentafluoro-N,N-bis(trifluoromethyl)prop-1-en-1-amine] | 0.71 Yrs | 1.9 Yrs |
| FC(=C(F)C(F)(F)F)N(C(F)(F)F)C(F)(F)C(F)(F)F [C2F5(CF3)N—CF═CFCF3] | 1.4 Yrs | 3.5 Yrs |
